US10550105B2 (Ribon Therapeutics Inc., priority 2018, dated 2020)

These molecules were tested against PARP7 (Homo sapiens (Human), UniProt Q7Z3E1) (assay: Enzymatic assay for inhibition of PARP7: TR-FRET displacement of biotinylated Probe A from the TIPARP active site). Settings: Table A-1.
Type: binding
How it was run: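 Read-out: 665/615 nm emission ratio (ex 320 nm, 90 μs delay) indexing bound TIPARP–Probe A. Final incubation 30 min, 25° C; compounds in dose response. Curve fit of % inhibition vs concentration; Hill slope floating or fixed at 1 (3-parameter).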

PARP7, sequence (Q7Z3E1 whole entry): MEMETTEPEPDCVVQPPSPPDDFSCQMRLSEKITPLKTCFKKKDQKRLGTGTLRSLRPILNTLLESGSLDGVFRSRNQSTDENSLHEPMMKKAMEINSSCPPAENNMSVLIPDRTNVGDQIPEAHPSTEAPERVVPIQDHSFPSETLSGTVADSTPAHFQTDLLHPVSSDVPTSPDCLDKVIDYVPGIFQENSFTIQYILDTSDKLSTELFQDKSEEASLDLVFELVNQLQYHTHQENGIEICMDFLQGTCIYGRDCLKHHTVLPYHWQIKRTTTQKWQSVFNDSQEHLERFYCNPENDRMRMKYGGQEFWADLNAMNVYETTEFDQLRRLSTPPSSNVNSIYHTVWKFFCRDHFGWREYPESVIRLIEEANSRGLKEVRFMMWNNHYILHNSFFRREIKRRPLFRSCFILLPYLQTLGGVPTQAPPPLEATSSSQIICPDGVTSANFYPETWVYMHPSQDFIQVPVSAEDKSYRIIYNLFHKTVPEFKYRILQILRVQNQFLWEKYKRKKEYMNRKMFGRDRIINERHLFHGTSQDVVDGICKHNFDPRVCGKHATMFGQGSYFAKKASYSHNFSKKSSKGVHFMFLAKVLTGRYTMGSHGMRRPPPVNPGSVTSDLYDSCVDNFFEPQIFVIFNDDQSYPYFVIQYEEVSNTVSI

SMILES	IC50
N#Cc1ccc(N2CCN(C(=O)c3cc(OCC4c5ccccc5CN4c4cn[nH]c(=O)c4C(F)(F)F)cnc3F)CC2)nc1 (stereo not shown) [Example 61, 6-(4-[[2-fluoro-5-([2-[6-oxo-5-(trifluoromethyl)-1,6-dihydropyridazin-4-yl]-2,3-dihydro-1H-isoindol-1-yl]methoxy)pyridin-3-yl]carbonyl]piperazin-1-yl)pyridine-3-carbonitrile]	< 100 nM
CC(C)c1c(N2Cc3ccc(OC4CCCNC4)cc3C2)cn[nH]c1=O (stereo not shown) [Example 287, 4-Isopropyl-5-(5-(piperidin-3-yloxy)isoindolin-2-yl)pyridazin-3(2H)-one]	≥ 1000 nM
O=c1[nH]ncc(N2Cc3cc(F)c(OCC4CCCN4)cc3C2)c1C(F)(F)F (stereo not shown) [Example 48, 5-[5-fluoro-6-(pyrrolidin-2-ylmethoxy)-2,3-dihydro-1H-isoindol-2-yl]-4-(trifluoromethyl)-2,3-dihydropyridazin-3-one]	< 100 nM
O=C(C[C@@H]1CC[C@@H](CNc2cn[nH]c(=O)c2C(F)(F)F)O1)N1CCN(c2ccc(C(F)(F)F)cn2)CC1 (single isomer, unassigned) [Example 546 Isomer A]	< 100 nM
CC(CC(=O)N1CCN(c2ccc(C#N)cn2)CC1)OC[C@@H](C)Oc1cn[nH]c(=O)c1C(F)(F)F (stereo partly drawn) [Example 569, 6-(4-[3-[(2R)-2-[[6-Oxo-5-(trifluoromethyl)-1,6-dihydropyridazin-4-yl]oxy]propoxy]butanoyl]piperazin-1-yl)pyridine-3-carbonitrile]	100 to 1000 nM
O=C1OCCC1Oc1cccc2c1CN(c1cn[nH]c(=O)c1C(F)(F)F)C2 (stereo not shown) [Example 202, 5-(4-((2-Oxotetrahydrofuran-3-yl)oxy)isoindolin-2-yl)-4-(trifluoromethyl)pyridazin-3(2H)-one]	< 100 nM
O=c1[nH]ncc(N2Cc3cc(OC4CCNCC4)cnc3C2)c1C(F)(F)F [Example 7, 5-[3-(piperidin-4-yloxy)-5H,6H,7H-pyrrolo[3,4-b]pyridin-6-yl]-4-(trifluoromethyl)-2,3-dihydropyridazin-3-one]	100 to 1000 nM
O=c1[nH]ncc(N2Cc3cccnc3C2)c1C(F)(F)F [Example 236, 5-(5,7-Dihydro-6H-pyrrolo[3,4-b]pyridin-6-yl)-4-(trifluoromethyl)pyridazin-3(2H)-one]	< 100 nM
N#Cc1ccc(N2CCN(C(=O)c3ccc(Oc4cccc5c4CN(c4cn[nH]c(=O)c4C(F)(F)F)C5)cc3)CC2)nc1 [Example 494, 6-(4-(4-((2-(6-Oxo-5-(trifluoromethyl)-1,6-dihydropyridazin-4-yl)isoindolin-4-yl)oxy)benzoyl)pipoerazin-1-yl)nicotinonitrile]	< 100 nM
CC(=O)N1CCC(Oc2ccc(F)c3c2CN(c2cn[nH]c(=O)c2C(F)(F)F)C3)CC1 [Example 2, 5-[4-[(1-acetylpiperidin-4-yl)oxy]-7-fluoro-2,3-dihydro-1H-isoindol-2-yl]-4-(trifluoromethyl)-2,3-dihydropyridazin-3-one]	< 100 nM
N#Cc1cnc(N2CCN(C(=O)c3cccc(OC[C@@H]4c5ccccc5CN4c4cn[nH]c(=O)c4C(F)(F)F)c3)CC2)nc1 [Example 365, (S)-2-(4-(3-((2-(6-oxo-5-(trifluoromethyl)-1,6-dihydropyridazin-4-yl)isoindolin-1-yl)methoxy)benzoyl)piperazin-1-yl)pyrimidine-5-carbonitrile]	< 100 nM
N#Cc1ccc(N2CCN(C(=O)CCOCCOc3cn[nH]c(=O)c3Cl)CC2)nc1 [Example 521, 6-[4-(3-[2-[(5-Chloro-6-oxo-1,6-dihydropyridazin-4-yl)oxy]ethoxy]propanoyl)piperazin-1-yl]pyridine-3-carbonitrile]	< 100 nM
CN(C)CCOc1cnc2c(c1)CN(c1cn[nH]c(=O)c1C(F)(F)F)C2 [Example 335, 5-(3-(2-(Dimethylamino)ethoxy)-5,7-dihydro-6H-pyrrolo[3,4-b]pyridin-6-yl)-4-(trifluoromethyl)pyridazin-3(2H)-one]	100 to 1000 nM
N#Cc1ccc(N2CCN(C(=O)CNCC[C@H]3c4ccccc4CN3c3cn[nH]c(=O)c3C(F)(F)F)CC2)nc1 [Example 144B, 6-[4-[2-([2-[(1S)-2-[6-oxo-5-(trifluoromethyl)-1,6-dihydropyridazin-4-yl]-2,3-dihydro-1H-isoindol-1-yl]ethyl]amino)acetyl]piperazin-1-yl]pyridine-3-carbonitrile]	100 to 1000 nM
O=c1[nH]ncc(N2Cc3cccc(CNc4ccncc4)c3C2)c1C(F)(F)F [Example 339, 5-(4-((Pyridin-4-ylamino)methyl)isoindolin-2-yl)-4-(trifluoromethyl)pyridazin-3(2H)-one]	< 100 nM
CN(CCC(=O)N1CCN(c2ccc(C#N)cn2)CC1)C[C@@H]1c2ccccc2CN1c1cn[nH]c(=O)c1C(F)(F)F [Example 427, (S)-6-(4-(3-(Methyl((2-(6-oxo-5-(trifluoromethyl)-1,6-dihydropyridazin-4-yl)isoindolin-1-yl)methyl)amino)propanoyl)piperazin-1-yl)nicotinonitrile]	< 100 nM
N#Cc1ccc(N2CCN(C(=O)c3cccc(NCC4c5ccccc5CN4c4cn[nH]c(=O)c4C(F)(F)F)c3)CC2)nc1 (stereo not shown) [Example 348, 6-(4-(3-(((2-(6-Oxo-5-(trifluoromethyl)-1,6-dihydropyridazin-4-yl)isoindolin-1-yl)methyl)amino)benzoyl)piperazin-1-yl)nicotinonitrile]	< 100 nM
CC[C@@H](COCCC(=O)N1CCN(c2ncc(C#N)cn2)CC1)Oc1cn[nH]c(=O)c1C(F)(F)F [Example 592, 2-(4-[3-[(2S)-2-[[6-oxo-5-(trifluoromethyl)-1,6-dihydropyridazin-4-yl]oxy]butoxy]propanoyl]piperazin-1-yl)pyrimidine-5-carbonitrile]	< 100 nM
N#Cc1cnc(N2CCN(C(=O)c3cncc(OC[C@@H]4c5ccccc5CN4c4cn[nH]c(=O)c4C(F)(F)F)c3)CC2)nc1 [Example 395, (S)-2-(4-(5-((2-(6-Oxo-5-(trifluoromethyl)-1,6-dihydropyridazin-4-yl)isoindolin-1-yl)methoxy)nicotinoyl)piperazin-1-yl)pyrimidine-5-carbonitrile]	< 100 nM

Second part, the molecule after the results:

IC50	SMILES
100 to 1000 nM	O=C(c1cccc(OC[C@@H]2CCCN2c2cn[nH]c(=O)c2C(F)(F)F)c1)N1CCn2cnnc2C1 [Example 451, (S)-5-(2-((3-(5,6,7,8-Tetrahydro-[1,2,4]triazolo[4,3-a]pyrazine-7-carbonyl)phenoxy)methyl)pyrrolidin-1-yl)-4-(trifluoromethyl)pyridazin-3(2H)-one]
< 100 nM	C[C@@H](COCCC(=O)N1CCN(c2cc(C(F)(F)F)ccn2)CC1)Nc1cn[nH]c(=O)c1C(F)(F)F [Example 674, (S)-5-((1-(3-Oxo-3-(4-(4-(trifluoromethyl)pyridin-2-yl)piperazin-1-yl)propoxy)propan-2-yl)amino)-4-(trifluoromethyl)pyridazin-3(2H)-one]
100 to 1000 nM	O=C(CCOC[C@@H]1c2ccccc2CN1c1cn[nH]c(=O)c1C(F)(F)F)N1CCNCC1 [Example 417, (S)-5-(1-((3-Oxo-3-(piperazin-1-yl)propoxy)methyl)isoindolin-2-yl)-4-(trifluoromethyl)pyridazin-3(2H)-one]
100 to 1000 nM	N#Cc1ccc(N2CCN(C(=O)[C@H]3CCC[C@H](OC[C@@H]4CCCN4c4cn[nH]c(=O)c4C(F)(F)F)C3)CC2)nc1 (single isomer, unassigned) [Example 57 Isomer A]
< 100 nM	COC[C@@H](COCCC(=O)N1CCN(c2ccc(C#N)cn2)CC1)Oc1cn[nH]c(=O)c1C(F)(F)F (single isomer, unassigned) [Example 532 Isomer A]
100 to 1000 nM	C[C@H](CSCCC(=O)N1CCN(c2ncc(C(F)(F)F)cn2)CC1)Nc1cn[nH]c(=O)c1C(F)(F)F [Example 703, (R)-5-((1-((3-Oxo-3-(4-(5-(trifluoromethyl)pyrimidin-2-yl)piperazin-1-yl)propyl)thio)propan-2-yl)amino)-4-(trifluoromethyl)pyridazin-3(2H)-one]
100 to 1000 nM	COC[C@H](COCCC(=O)N1CCN(c2ncc(C(F)(F)F)cn2)CC1)Oc1cn[nH]c(=O)c1C(F)(F)F (single isomer, unassigned) [Example 570 Isomer B]
< 100 nM	O=C(CCOC[C@@H]1CCCN1c1cn[nH]c(=O)c1C(F)(F)F)N1CCN(c2ncc(Cl)cn2)CC1 [Example 482, (S)-5-(2-((3-(4-(5-Chloropyrimidin-2-yl)piperazin-1-yl)-3-oxopropoxy)methyl)pyrrolidin-1-yl)-4-(trifluoromethyl)pyridazin-3(2H)-one]
≥ 1000 nM	N#Cc1ccc(N2CCN(C(=O)c3cccc(OC[C@H]4CCCN4c4cn[nH]c(=O)c4C(F)(F)F)c3)CC2)nc1 [Example 31, 6-[4-[(3-[[(2R)-1-[6-oxo-5-(trifluoromethyl)-1,6-dihydropyridazin-4-yl]pyrrolidin-2-yl]methoxy]phenyl)carbonyl]piperazin-1-yl]pyridine-3-carbonitrile]
< 100 nM	COCC[C@@H](COCCC(=O)N1CCN(c2ncc(C(F)(F)F)cn2)CC1)Nc1cn[nH]c(=O)c1C(F)(F)F [Example 686, (S)-5-((4-Methoxy-1-(3-oxo-3-(4-(5-(trifluoromethyl)pyrimidin-2-yl)piperazin-1-yl)propoxy)butan-2-yl)amino)-4-(trifluoromethyl)pyridazin-3(2H)-one]
< 100 nM	N#Cc1ccc(N2CCN(C(=O)COCCNc3cn[nH]c(=O)c3C(F)(F)F)CC2)nc1 [Example 499, 6-[4-[2-(2-[[6-Oxo-5-(trifluoromethyl)-1,6-dihydropyridazin-4-yl]amino]ethoxy)acetyl]piperazin-1-yl]pyridine-3-carbonitrile]
< 100 nM	N#Cc1ccc(N2CCN(C(=O)c3cc(OC[C@@H]4CCCN4c4cn[nH]c(=O)c4C(F)(F)F)ccc3F)CC2)nc1 [Example 67, 6-[4-[(2-fluoro-5-[[(2S)-1-[6-oxo-5-(trifluoromethyl)-1,6-dihydropyridazin-4-yl]pyrrolidin-2-yl]methoxy]phenyl)carbonyl]piperazin-1-yl]pyridine-3-carbonitrile]
